According to patent US5576436A, “Fluorescent ligands” (Pharmaceutical Discovery Corporation, priority 1994, dated 1996):
pIC50, pKd, pKi: −log10 of the molar value. Like-named read-outs stand apart in the source and are kept apart here.

Legend:
Cannabinoid = assay: Radioligand binding, cannabinoid receptor; conditions: Table I; read-out: Radiolig. Kd:Ki
Kappa 1 = assay: Fluorescent ligand binding, kappa1 opioid receptor; conditions: result in words
kappa1 opioid receptor = assay: Radioligand ([^3 H]U69,593) binding, kappa1 opioid receptor; conditions: read-out: IC50 value versus radioligand binding
Glycine = assay: Fluorescent ligand binding, glycine receptor (strychnine-insensitive); conditions: Table I
Dopamine 2 [1] = assay: Fluorescent ligand binding, dopamine 2 (direct fluorescence measurement); conditions: Table I
Dopamine 2 [2] = assay: Radioligand binding, dopamine 2; conditions: Table I; read-out: Radiolig. Kd:Ki
Muscarinic-M1 [3] = assay: Fluorescent ligand binding, muscarinic-M1 receptor; conditions: Table I
Muscarinic-M1 [4] = assay: Radioligand binding, muscarinic-M1; conditions: Table I; read-out: Radiolig. Kd:Ki
benzodiazepine receptors = conditions: cited from earlier work
Adenosine-A2a [5] = assay: Fluorescent ligand binding, adenosine-A2a receptor; conditions: Table I
Protocol: Recommended Assay Conditions for ADENOSINE-A2A RECEPTOR LIGAND (PDC 018.075)
Incubation buffer: 50 mM Tris-HCL containing 10mM MgCl2, (pH 7.4 at 25° C.)
(§1) Spectra: 492 nm (ex) and 516 nm (em)
(§2) 1. Reconstitution: 10.0 ml of incubation buffer
3. Incubation Time: 90 minutes at 25° C.

Adenosine-A2a [6] = assay: Radioligand binding, adenosine-A2a; conditions: Table I; read-out: Radiolig. Kd:Ki
Dopamine 1 [7] = assay: Fluorescent ligand binding, dopamine 1 (direct fluorescence measurement); conditions: Table I
Dopamine 1 [8] = assay: Radioligand binding, dopamine 1; conditions: Table I; read-out: Radiolig. Kd:Ki
Peripheral Bzd [9] = assay: Fluorescent ligand binding, peripheral benzodiazepine receptor; conditions: Table I
Protocol: PERIPHERAL BENZODIAZEPINE RECEPTOR LIGAND (PDC 018.091)
(§3) Recommended Assay Conditions:
Incubation buffer: 50 Nm Tris-Citrate containing […] MgCL2 (pH 7.0 at 4° C.)
as §1, §2

Peripheral Bzd [10] = assay: Radioligand binding, peripheral benzodiazepine receptor; conditions: Table I; read-out: Radiolig. Kd:Ki
NMDA [11] = assay: Fluorescent ligand binding, NMDA receptor complex; conditions: Table I
Protocol: NMDA RECEPTOR COMPLEX LIGAND (spectral shift compound) (PDC 014.041)
as §3
Incubation buffer: 5 mM Hepes/Tris (pH 7.8 at 25° C.)
Spectra: 335 nm (ex) and 515 nm (em)
as §2
3. Incubation Time: 2 hours at 25° C.
4. Measure fluorescence intensity: 335 nm (ex) and […]

NMDA [12] = assay: Radioligand binding, NMDA; conditions: Table I; read-out: Radiolig. Kd:Ki
[13] = density of binding of the ligand
[14] = centri., quench, read-out: Fluores. Kd
[15] = centrifugation, read-out: Fluores. Kd

`CCCCC/C=C\C/C=C\C/C=C\C/C=C\CCCC(=O)NCCNc1ccc([N+](=O)[O-])c2nonc12` [PDC 014.063] gave a pKi (Cannabinoid) of 7.28.

With `CN(C(=O)Cc1cc(Cl)c(Cl)cc1NC(=O)CCCNC(=O)c1ccc2c(c1)C(=O)OC21c2ccc(O)cc2Oc2cc(O)ccc21)[C@@H]1CCCC[C@H]1N1CCCC1` [1R,2R-trans-4,5-dichloro-2-(4-fluorescein-5-carboxamido)-n-butaniado)-(N-methyl)-2-(1-pyrrolidnyl)-cyclohexyl)benzeneacetamide] the “Measurement using the fluorescence assay” value (Kappa 1) was “confirmed the radioligand results”, the pIC50 (kappa1 opioid receptor; 1R,2R enantiomer) was 5.49 and the pIC50 (kappa1 opioid receptor; bound in parentheses) was less than 6.00.

With `O=C(NCCCCCCNc1ccc([N+](=O)[O-])c2nonc12)c1cc(O)c2c(Cl)cc(Cl)cc2n1` [PDC 002.083] the Bmax (Glycine; [13]) was 14.5 pmol/mg prot and the pKd (Glycine; read-out: Fluores. Kd, centri., quench) was 6.12.

Compound `CCCCC/C=C\C/C=C\C/C=C\C/C=C\CCCC(=O)NCCNS(=O)(=O)c1cccc2c(N(C)C)cccc12` [PDC 014.064] has a pKi (Cannabinoid) of 7.28.

Compound `CCN(CC)CCNC(=O)c1cc(Cl)c(NC(=O)CCCCCNc2ccc([N+](=O)[O-])c3nonc23)cc1OC` [PDC 014.036] has a pKd (Dopamine 2 [1]; [14]) of 6.30, a Bmax (Dopamine 2 [1]; [13]) of 0.13 pmol/mg prot and a pKi (Dopamine 2 [2]) of 7.05.

For `O=[N+]([O-])c1ccc(NCCN2CCOCC2)c2nonc12` [PDC 018.039], the pKd (Muscarinic-M1 [3]; [14]) was 6.01, the Bmax (Muscarinic-M1 [3]; [13]) was 0.20 pmol/mg prot and the pKi (Muscarinic-M1 [4]) was 5.77.

In the case of `NCCCC(=O)O` [GABA], the “effect on [^3 H]alprazolam binding” value (benzodiazepine receptors; rat brain membranes) is given as “enhanced”.

Compound `CCNC(=O)[C@H]1O[C@@H](n2cnc3c(N)nc(NCCc4ccc(CCC(=O)NCCNC(=S)Nc5ccc6c(c5)C(=O)OC65c6ccc(O)cc6Oc6cc(O)ccc65)cc4)nc32)[C@H](O)[C@@H]1O` [PDC 018.075] has a pKd (Adenosine-A2a [5]; [15]) of 7.24, a Bmax (Adenosine-A2a [5]; [13]) of 2.3 pmol/mg prot and a pKi (Adenosine-A2a [6]) of 7.82.

For `O=[N+]([O-])c1ccc(NCCN2CCN(CCCN3c4ccccc4Sc4ccc(C(F)(F)F)cc43)CC2)c2nonc12` [PDC 014.043], the pKd (Dopamine 1 [7]; [14]) was 6.72, the Bmax (Dopamine 1 [7]; [13]) was 69 pmol/mg prot and the pKi (Dopamine 1 [8]) was 7.96.

For `Cc1nnc2n1-c1ccc(Cl)cc1C(c1ccccc1)=NC2` [Alprazolam, alprazolam], the “specific to nonspecific (signal to noise) binding ratios” value (benzodiazepine receptors; nonequilibrium and equilibrium binding conditions) is listed as “high”, the “affinity for benzodiazepine receptors” value (benzodiazepine receptors; rat brain membranes, saturable and specific) is listed as “low nanomolar affinity” and the “selectivity in vitro for benzodiazepine receptors” value (benzodiazepine receptors; rat brain) is listed as “selective and specific ligand”.

`CCC(C)N(C)C(=O)c1cc2ccccc2c(-c2cc(NC(=O)c3ccc4c(c3)C(=O)OC43c4ccc(O)cc4Oc4cc(O)ccc43)ccc2F)n1` (centres unmarked) [PDC 018.091] gave a pKd (Peripheral Bzd [9]; [15]) of 7.40, a Bmax (Peripheral Bzd [9]; [13]) of 2.3 pmol/mg prot and a pKi (Peripheral Bzd [10]) of 8.70.

Compound `CN(C)c1cccc2c(S(=O)(=O)NCCCNC(Cc3ccccc3)c3ccccc3)cccc12` (centres unmarked) [PDC 014.041] has a pKd (NMDA [11]; centri., spectral shift, read-out: Fluores. Kd) of 6.00, a Bmax (NMDA [11]; [13]) of 1.9 pmol/mg prot and a pKi (NMDA [12]) of 7.35.
